{
  "source": "patent US7238720B2",
  "about": "“Pharmaceutical use of N-carbamoylazole derivatives” (Eisai R & D Management Co. Ltd., priority 2001, dated 2007)",
  "key": {"male C57BL/6N mice": {"test_system": "male C57BL/6N mice", "experiment": "Glucose-tolerance improving effects in normal mice, Experiment 3 (compound given orally 30 minutes before glucose)", "assay_type": "in vivo", "settings": "for Blood Glucose, At Indicated Times After Glucose-Solution Administration (min.): 1 mg/kg oral 30 min before glucose 2 g/kg, mean ± standard error", "protocol": "Test for Identifying Glucose-Tolerance Improving Effects\nEffects on Glucose-Tolerance Ability of Normal Mice\nAnimals: Five or six male C57BL/6N mice per group (purchased from Charles River Japan, Inc.).\nThe suspension of the compound to be tested and 0.5% methylcellulose solution which was the vehicle control group were administered orally at a volume of 10 ml/kg, and at 30 minutes after administration, a glucose solution was administered orally at a volume of 10 ml/kg. Glucose was given at a dose of 2 g/kg.\nThe blood was drawn from the tail vein immediately before the administration of the compound to be tested, and immediately before and at 30, 60, and 120 minutes after the administration of the glucose solution, and subjected to the measurement of the blood glucose value.\nThe tail vein of the mice was injured, without anesthesia, with a razor to cause slight bleeding. Ten microliters of blood was collected, and mixed immediately with […] of 0.6 M perchloric acid. The glucose in supernatants obtained by centrifugation (1500 g, 10 min. 4° C., in a cooled centrifuge GS-6KR from Beckman Ltd.) was determined employing a Glucose CII Test Wako kit (Wako Pure Chemical Industries, Ltd.).\nThe results are expressed by mean value±standard error."}, "[1]": {"biological_target": "T1, DPP-IV, obtained from porcine kidneys (Sus scrofa, UniProt P22411)", "T1 construct": "DPP-IV, obtained from porcine kidneys; from tissue; host or cells: porcine kidney", "T1 sequence (P22411 whole entry)": "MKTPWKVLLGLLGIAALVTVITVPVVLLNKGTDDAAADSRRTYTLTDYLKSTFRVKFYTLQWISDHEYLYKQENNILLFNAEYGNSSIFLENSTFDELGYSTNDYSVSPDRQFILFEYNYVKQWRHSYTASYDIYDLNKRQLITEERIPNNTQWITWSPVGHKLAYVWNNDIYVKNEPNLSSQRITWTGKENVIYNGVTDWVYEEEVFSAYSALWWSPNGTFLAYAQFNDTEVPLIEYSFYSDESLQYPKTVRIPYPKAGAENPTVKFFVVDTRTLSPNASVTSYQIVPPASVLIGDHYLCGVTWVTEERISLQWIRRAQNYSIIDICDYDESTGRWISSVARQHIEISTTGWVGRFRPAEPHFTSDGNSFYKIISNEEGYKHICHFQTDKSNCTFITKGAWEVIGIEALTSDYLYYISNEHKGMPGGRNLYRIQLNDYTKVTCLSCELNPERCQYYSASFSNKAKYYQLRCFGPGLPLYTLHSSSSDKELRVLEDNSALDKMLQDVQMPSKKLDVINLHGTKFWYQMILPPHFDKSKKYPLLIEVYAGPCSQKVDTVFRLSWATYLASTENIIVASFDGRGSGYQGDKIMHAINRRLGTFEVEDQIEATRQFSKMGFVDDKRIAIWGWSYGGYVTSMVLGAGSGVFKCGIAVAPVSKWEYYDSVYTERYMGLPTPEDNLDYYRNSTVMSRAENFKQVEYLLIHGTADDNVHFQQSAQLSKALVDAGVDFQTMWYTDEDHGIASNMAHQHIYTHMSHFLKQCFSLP", "experiment": "Measurement of DPPIV inhibiting effects (Gly-Pro-p-nitroanilide, absorbance at 405 nm)", "assay_type": "biochemical", "settings": "porcine kidney DPP-IV 10 mU/mL, 20 min preincubation, Gly-Pro-p-nitroanilide 0.33 mM, pH 7.4", "protocol": "Measurement of DPPIV Inhibiting Effects\nDPP-IV, obtained from porcine kidneys, was dissolved in a reaction buffer solution (50 mM Tris-HCl, pH 7.4, 0.1% BSA) such that the concentration of DPP-IV was at 10 mU/mL. This solution (110 μl) was placed into test tubes, to which compounds to be tested were further added at a quantity of 15 μl and incubated at room temperature for 20 minutes. Twenty-five microliters of a solution in which Gly-Pro-p-nitroanilide was dissolved at 2 mM was added (final concentration, 0.33 mM) to start the enzymatic reaction. The reaction time was 20 minutes. The reaction was stopped by the addition of 25 μl of 1 N phosphoric acid."}},
  "data": [
    {"smiles": "COCCOc1cccc(C)c1S(=O)(=O)c1ncn(C(=O)N(C)C)n1", "note": "[Example 43, 3-[2-(2-Methoxyethyl)oxy-6-methylphenyl]sulfonyl-1-dimethylcarbamoyl-1H-1,2,4-triazole]", "values": [
      {"measurement": "Blood Glucose, At Indicated Times After Glucose-Solution Administration (min.)", "setting": "male C57BL/6N mice; 0 min (immediately before glucose)", "value": "89.8 ± 2.1", "unit": "mg/dL"},
      {"measurement": "Blood Glucose, At Indicated Times After Glucose-Solution Administration (min.)", "setting": "male C57BL/6N mice; 30 min", "value": "173.8 ± 5.1", "unit": "mg/dL"},
      {"measurement": "Blood Glucose, At Indicated Times After Glucose-Solution Administration (min.)", "setting": "male C57BL/6N mice; 60 min", "value": "170.8 ± 5.7", "unit": "mg/dL"},
      {"measurement": "Blood Glucose, At Indicated Times After Glucose-Solution Administration (min.)", "setting": "male C57BL/6N mice; 120 min", "value": "112.1 ± 2.5", "unit": "mg/dL"},
      {"measurement": "Blood Glucose, At Indicated Times After Glucose-Solution Administration (min.)", "setting": "male C57BL/6N mice; −30 min (immediately before compound administration)", "value": "70.8 ± 1.5", "unit": "mg/dL"},
      {"measurement": "effect on glucose-tolerance ability of normal mice", "setting": "male C57BL/6N mice; oral administration, result in words", "value": "distinct effect"},
      {"measurement": "IC50", "setting": "[1]", "value": 4.34, "unit": "nM"}
    ]}
  ]
}
